The results in this text go back to publication PMC5008386, “Oridonin, a novel lysine acetyltransferases inhibitor, inhibits proliferation and induces apoptosis in gastric cancer cells through p53- and caspase-3-mediated mechanisms” (Oncotarget, 2016).

In the assay the target is T1, P300 (Homo sapiens, UniProt Q09472).
T1 construct: gene EP300
The assay is described as follows: fluorogenic P300 acetyltransferase assay; also [3H]-acetyl CoA autoradiography and BLI (Octet RED96) with biotinylated oridonin. The format is biochemical. For orientation: Biolayer interferometry detects binding as a change in optical thickness at a sensor tip.

T1 sequence (Q09472 2-2414): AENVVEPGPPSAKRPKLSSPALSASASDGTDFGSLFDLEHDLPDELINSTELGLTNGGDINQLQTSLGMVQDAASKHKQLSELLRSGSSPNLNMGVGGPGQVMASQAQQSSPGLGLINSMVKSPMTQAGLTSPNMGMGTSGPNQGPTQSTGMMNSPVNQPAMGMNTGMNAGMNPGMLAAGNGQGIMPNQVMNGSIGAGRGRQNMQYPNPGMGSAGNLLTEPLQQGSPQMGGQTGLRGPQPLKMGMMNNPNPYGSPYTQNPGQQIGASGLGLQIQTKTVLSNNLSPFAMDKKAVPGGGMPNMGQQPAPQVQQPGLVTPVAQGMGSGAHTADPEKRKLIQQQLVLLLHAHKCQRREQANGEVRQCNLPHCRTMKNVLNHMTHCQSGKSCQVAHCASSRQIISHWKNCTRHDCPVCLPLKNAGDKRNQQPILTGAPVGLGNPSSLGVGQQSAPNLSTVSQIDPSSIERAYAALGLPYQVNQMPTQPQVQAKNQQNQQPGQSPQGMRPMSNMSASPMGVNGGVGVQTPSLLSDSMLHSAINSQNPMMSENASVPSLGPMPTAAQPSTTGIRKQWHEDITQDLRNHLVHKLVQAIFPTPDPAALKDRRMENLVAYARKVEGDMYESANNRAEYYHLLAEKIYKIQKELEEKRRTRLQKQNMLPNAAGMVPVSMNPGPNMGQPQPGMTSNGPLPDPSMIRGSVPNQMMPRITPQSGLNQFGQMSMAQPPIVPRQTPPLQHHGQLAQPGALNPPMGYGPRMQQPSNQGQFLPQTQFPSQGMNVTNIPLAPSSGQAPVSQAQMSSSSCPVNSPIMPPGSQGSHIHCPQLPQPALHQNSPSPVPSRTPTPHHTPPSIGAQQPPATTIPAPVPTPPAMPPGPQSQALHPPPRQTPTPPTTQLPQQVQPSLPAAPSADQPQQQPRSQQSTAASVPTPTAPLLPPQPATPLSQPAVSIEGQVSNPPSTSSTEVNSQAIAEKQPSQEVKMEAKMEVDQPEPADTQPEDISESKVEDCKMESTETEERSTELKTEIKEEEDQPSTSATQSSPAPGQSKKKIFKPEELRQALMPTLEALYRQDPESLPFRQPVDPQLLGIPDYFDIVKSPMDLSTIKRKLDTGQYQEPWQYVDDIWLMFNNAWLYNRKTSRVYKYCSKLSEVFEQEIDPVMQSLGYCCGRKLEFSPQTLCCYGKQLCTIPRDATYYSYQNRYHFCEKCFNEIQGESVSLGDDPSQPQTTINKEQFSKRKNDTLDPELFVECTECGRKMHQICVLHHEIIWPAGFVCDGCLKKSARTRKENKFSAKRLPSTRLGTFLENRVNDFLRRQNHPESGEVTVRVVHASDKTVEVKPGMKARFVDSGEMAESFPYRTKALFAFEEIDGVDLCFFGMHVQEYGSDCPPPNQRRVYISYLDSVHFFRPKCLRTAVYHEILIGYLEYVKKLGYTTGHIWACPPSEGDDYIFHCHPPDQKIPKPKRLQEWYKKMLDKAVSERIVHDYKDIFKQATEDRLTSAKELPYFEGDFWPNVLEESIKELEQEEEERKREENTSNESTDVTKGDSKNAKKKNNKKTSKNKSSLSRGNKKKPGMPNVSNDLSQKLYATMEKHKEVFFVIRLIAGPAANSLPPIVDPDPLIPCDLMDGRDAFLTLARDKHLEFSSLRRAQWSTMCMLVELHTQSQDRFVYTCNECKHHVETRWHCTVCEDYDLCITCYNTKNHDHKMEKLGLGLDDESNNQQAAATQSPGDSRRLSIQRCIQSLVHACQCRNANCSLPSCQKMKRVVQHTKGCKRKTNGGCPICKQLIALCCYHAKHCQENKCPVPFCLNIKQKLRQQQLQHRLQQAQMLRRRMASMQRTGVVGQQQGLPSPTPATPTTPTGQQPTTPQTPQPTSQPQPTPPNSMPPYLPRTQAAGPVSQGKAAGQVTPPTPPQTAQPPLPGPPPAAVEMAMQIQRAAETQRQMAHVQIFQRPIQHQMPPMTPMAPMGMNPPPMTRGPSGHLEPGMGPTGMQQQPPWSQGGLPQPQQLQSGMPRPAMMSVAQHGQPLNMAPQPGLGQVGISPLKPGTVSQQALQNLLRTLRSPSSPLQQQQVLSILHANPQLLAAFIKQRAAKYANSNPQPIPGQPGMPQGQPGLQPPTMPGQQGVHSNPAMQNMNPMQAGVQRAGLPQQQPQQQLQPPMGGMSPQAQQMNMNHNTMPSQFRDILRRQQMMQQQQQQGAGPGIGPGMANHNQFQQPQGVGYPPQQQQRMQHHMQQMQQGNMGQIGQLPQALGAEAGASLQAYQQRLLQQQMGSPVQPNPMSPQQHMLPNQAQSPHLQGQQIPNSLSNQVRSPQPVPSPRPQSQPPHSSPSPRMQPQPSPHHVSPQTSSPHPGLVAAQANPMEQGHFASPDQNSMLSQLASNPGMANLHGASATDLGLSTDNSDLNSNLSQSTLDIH

As a reminder, the IC50 is the concentration that inhibits the measured activity by half. A high value points to lower potency. Regarding `C=C1C(=O)[C@]23[C@H](O)[C@H]1CC[C@H]2[C@@]12CO[C@]3(O)[C@@H](O)[C@@H]1C(C)(C)CC[C@@H]2O` [oridonin], the IC50 was approximately 5 µM.
